In patent US20070238660A1 (priority 2006, published 2007):

Tested on: viruses
Experiment: Virus inactivation by fabric with attached dye under illumination
Type: cell-based
Settings: for virus inactivation (in words): low light illumination levels, FIG. 4

Cc1cc2cc3cc(C)c(N)cc3nc2cc1N.Cl [acridine yellow G]
viruses inactivated (exposure to light as low as 500 Lux): at least 99% | virus inactivation (in words): unexpected efficiency in virus inactivation | virus inactivation (in words) (listed as Acridine yellow G): very high virus inactivation
